We go through 17 compounds from US20240075036A1, “THERAPEUTIC COMBINATIONS INCLUDING INHIBITORS OF THE P2X4 RECEPTOR FOR TREATING AND PREVENTING PROLIFERATIVE DISORDERS” (CHEMOTHERAPEUTISCHES FORSCHUNGSINSTITUT GEORG-SPEYER-HAUS, priority 2021, published 2024).

Residues, ends and D or L forms follow the SMILES beside them. *: point of attachment. Cbz = O=C(OCc1ccccc1)*; CH2F = FC*

The test system of series [1] is S6 ribosomal protein phosphorylation (mTOR signaling). The experiment in a line: Immunoblot analysis of survival pathways / S6 phosphorylation in AOM/DSS tumor organoids. Format: cell-based, mice. Conditions: for ATP induced phosphorylation of S6: ATP (100 μM) in presence of inhibitor, AOM/DSS tumor organoids. Background: In western blotting, separated proteins are transferred to a membrane and probed.
Method: Data are mean±SD, n=7. *p<0.05 by two-tailed Student's t-test. c, Immunoblot analysis of Lgr5EGFP-DTR(−) tumor organoids treated with ATP (100 μM), 2MeS ADP (100 μM) and adenosine (100 μM) for 30 min. […] Data are mean±SD, n=4 replicates. […] Data are mean±SD, n=3 replicates. One representative of three experiment performed is shown. n.s. p>0,05, *p<0.05***, p<0.001, ****p<0.0001 by 1-way ANOVA with Bonferroni's multiple comparison test. 1, Immunoblot analysis of doxycycline inducible P2x4 knockdown APTAK colon tumor organoids treated with 5-FU (20 μM). Organoids were cultured in medium−/+doxycycline prior to the experiment. […] Organoids were cultured in medium−/+doxycycline prior to the experiment. […] Data are mean±SD, n=3.
In vitro Lgr5+ cells ablation experiments, organoids were treated with 20 ng/ml DT (Millipore, #322326) in the culture medium. For human LGR5+ cells ablation, we treated LGR5-iCT organoids with 500 nM BB homodimerizer. Other treatments were performed as described in each figure legends.

The test system of a further series is APTAK tumor organoids. The series is described as follows: APTAK tumor organoids: S6 phosphorylation and organoid survival. As to conditions: 5-FU. In kind it is cell-based, mice.
For series [2], the system named is human colon organoids derived from tumor tissue. The experiment in a line: ROS measurement with DCFDA in organoids. Format: cell-based. As to conditions: 5-FU (20 μM, 20 h). On the procedure: (§1) Data are mean±SD, n=3. […] Data are mean±SD, n=3.
ATP level in organoid supernatant or necrotic medium was measured using the CellTiter-Glo 2.0 Cell Viability Assay (Promega #G9242) according to the manufacturers instruction. ROS levels were measured using H2DCFDA (ThermoFisher #D339). Briefly, organoids were treated as indicated with 5-FU, stained with H2DCFDA and then analyzed for H2DCFDA positivity using fluorescence microscopy or FACS.

The subject of series [3] is S6 ribosomal protein phosphorylation, DNA damage and apoptosis markers.
Series [4] has as its system subcutaneous AOM/DSSATKN tumors. In kind it is in vivo, NSG mice.
The test system of series [5] is subcutaneous APTAKshP2x4 tumors. The series is described as follows: Subcutaneous APTAKshP2x4 tumors, 5-FU/rapamycin with or without NAC. In kind it is in vivo, mice. Conditions: additional application of NAC (0,5% in drinking water). On the procedure: as §1
Organoids were collected using ice cold Cell Recovery Solution (Corning, #354253) and mechanically dissociated into small clusters. Dissociated organoid cells were resuspended in PBS, admixed with 50% Matrigel (Corning, #356231) in a final volume of 100 μl, and injected subcutaneously in the right flank of NSG mice. Tumor size was monitored with a digital caliper and tumor volumes were calculated according to the formula (length×width×width)/2. At the end of experiments mice were humanely euthanized to collect tumors.
DT (Millipore, #322326) treatment was performed as previously described (3, 4). Briefly, DT was injected intraperitonially at a dose of 50 μg/kg for the time indicated in individual experiments. mTOR inhibitor rapamycin (LC Labs, #-5000) was dissolved in 5% Ethanol, 5% PEG400 and 5% Tween 80 in PBS and injected i.p. at 10 mg/kg once a day for indicated time. 0.5% N-acetylcysteine (Sigma-Aldrich, #A91165) was applied ad libitum in drinking water. 0.5 mg/ml Doxycycline (Sigma #D9891) was applied ad libitum in drinking water containing 3% Sucrose. 5-FU (Sigma #F6627) was dissolved in sterile H2O and injected intraperitoneally for the time indicated in individual experiments at a concentration of 20 mg/kg.

The subject of series [6] is Lgr5EGFP-DTR(+) tumor organoids. The series is described as follows: Tumor organoid survival / cell death upon treatment with or without DT. In kind it is cell-based, mice. An excerpt: Representative images are shown from at least three independent experiments. c, Average tumor size was counted on serial hematoxylin and eosin (H&E) stained sections on day 9 after 4 injections of either DT or vehicle. Data are mean±SD, n≥8/treatment. p>0.05 (n.s., not significant) by two-tailed Student's t-test. d, Immunohistochemical analysis and quantification of Lgr5-EGFP expression in GFP-stained colon tumor from Lgr5EGFP-DTR(+) mice on day 9 treated with DT as indicated in a). Representative images are shown (n≥8/treatment, scale bar=300 μm). […] Representative images are shown from four independent experiments (n=4/treatment, scale bar=200 μm). Data represent mean±SD, n=4/treatment. p>0.05 (n.s., not significant) by two-tailed Student's t-test. f, Flow cytometric analysis of Lgr5-EGFP+tumor cells from Lgr5EGFP-DTR(+) tumor organoids 24 h after DT treatment. Representative results are shown (n≥3). g, AOM/DSS colon tumor organoids from Lgr5EGFP-DTR(−) and Lgr5EGFP-DTR(+) mice were treated with DT (20 ng/ml) for 24 h. Representative images are shown from two independent experiments (scale bar=200 μm). h, Immunoblot analysis of Lgr5EGFP-DTR(+) and Lgr5EGFP-DTR(−) tumor organoids treated with DT for 24 h. […] 1, Control and raptor knockdown Lgr5EGFP-DTR(+) tumor organoids were passaged and counted after 72 h. […]

Another series concerns PC3 and C4-2B4 cells. As to conditions: selective P2XR4 antagonists; cited from earlier work.
Another series relates to HCT-116 cells. As to conditions: combination of SAMC and rapamycin; cited from earlier work.
The subject of series [7] is S6 phosphorylation in intestinal epithelial cells (IEC). The experiment in a line: S6 phosphorylation in intestinal epithelial cells of wildtype mice. Format: in vivo. Conditions: azoxymethane (10 mg/kg single injection), untransformed wildtype mice. On the procedure: as §1
Immunostaining was performed as previously described (35). Briefly, tissues were fixed with 4% paraformaldehyde. Six μm OCT frozen tissue sections or 5 μm paraffin-embedded tissue sections were processed for immunostaining using a standard histological protocol. Following primary antibodies were used: EGFP (Abcam, #ab6673), tdTomato (Rockland, #600-401-379), cleaved caspase 3 (Cell Signaling, #9579), Ki67 (Leica Bioststems, #NCL-L-Ki67-MM1), phospho-S6 (Cell Signaling, #2211),P2x4 (Abcam #134559). Sections were then incubated with HRPconjugated antibodies (Dako) and signal was detected with DAB reaction. For immunofluorescence staining after primary antibody incubation, sections were incubated with flourochrome-labelled secondary antibodies (Invitrogen) and sections were mounted with ProLong Gold Antifade Mountant with DAPI (Invitrogen, #P36931). Images were captured on a Zeiss microscope.

The subject of series [8] is AOM/DSSATKN tumor organoids. As to conditions: for rescue of organoid reseeding capacity under 5-FU/rapamycin: inhibitor of potential proapoptotic DAMPs added to 5-FU (20 μM) plus rapamycin (10 μM), 48 hours, re-seeded 72 h.
From the text: Percentage of reseeding capacity compared to vehicle treated organoids is indicated. Data are mean±SD, n=4 replicates. […] Percentage of reseeding capacity compared to vehicle treated organoids is indicated.
For series [9], the system named is refractory metastatic colorectal cancer / refractory solid tumors. Conditions: further addition of panitumumab to everolimus + mFOLFOX6; cited from earlier work.

Method for APTAK tumor organoids: Organoids were cultured in medium−/+doxycycline prior to the experiment. […] Organoids were cultured in medium−/+doxycycline prior to the experiment.
Colon tumor organoids were cultured as previously described (27). AOM/DSS induced colon tumors were harvested by opening the colon longitudinally and dissociated enzymatically for 30-40 min in digestion media containing 1 mg/ml collagenase I (Sigma-Aldrich), 0.5 mg/ml Dispase (Roche), 50 μg/ml DNase (Sigma-Aldrich) in RPMI medium containing 2% FCS. Supernatant was washed and filtered through a 70 μM cell strainer. Cells were then embedded in Matrigel (Corning, #356231) and cultured in Advanced Dulbecco's modified Eagle's medium/F12 (Invitrogen, #12634-028) supplemented with Glutamax (Invitrogen, #35050038), Hepes (Invitrogen, #15630056), Pen/Strep (Invitrogen, #15140122), N2 supplement (Invitrogen, #17502048), B27supplement (Invitrogen, #17504044) and n-Acetylcysteine (Sigma-Aldrich, #A91165). EGF (Invitrogen, #PMG8045), RspoI and noggin were added as niche factor.

With `O=c1[nH]cc(F)c(=O)[nH]1` [5-FU, 5-fluorouracil], in series [1] (5-FU, absence of Lgr5+ cells (Noggin withdrawal)), the “phosphorylation of S6” value was “able to induce phosphorylation of S6”. The S6 phosphorylation result in the series on APTAK tumor organoids is recorded as “led to mTOR dependent S6 phosphorylation”; in series [3] (5-FU (20 μM, 24 hours), AOM/DSS tumor tissues and tumor organoids) it was “induced S6 phosphorylation”. Also, in series [2], the “ROS levels (DCFDA)” value is given as “tumor organoid specific ROS increase”.

`Clc1cccc(-c2nnnn2Cc2cccnc2)c1Cl` [A-438079]: in series [1], the “ATP induced phosphorylation of S6” value is recorded as “did not decrease ATP dependent S6 phosphorylation”.

`Nc1ncnc2c1ncn2[C@@H]1O[C@H](COP(=O)(O)OP(=O)(O)OP(=O)(O)O)[C@@H](O)[C@H]1O` [ATP, adenosine triphosphate]: the “phosphorylation of S6-ribosomal protein” value in series [1] (Lgr5EGFP-DTR(−) tumor organoids, 100 μM, 30 min) was “induced phosphorylation of S6-ribosomal protein”.

In the case of `CC(=O)N[C@@H](CS)C(=O)O` [NAC, N-acetylcysteine], the “apoptosis in tumor tissues (cleaved Caspase 3)” value in series [4] (NAC (0,5% in drinking water) in DT/rapamycin treated animals) is “reduced apoptosis in tumor tissues”. In addition, the “tumor regression in 5-FU/rapamycin treated mice” value in [5] is listed as “revert tumor regression”. Moreover, the “DNA damage and apoptosis in tumor organoids” value in [3] (NAC (2 mM) in addition to DT and rapamycin, compared to DT/rapamycin alone) is “decreased DNA damage and apoptosis”.

For the compound `O=C(Nc1ccc(C(=O)Nc2ccc(C(=O)Nc3ccc(S(=O)(=O)O)c4cc(S(=O)(=O)O)cc(S(=O)(=O)O)c34)cc2)cc1)Nc1ccc(C(=O)Nc2ccc(C(=O)Nc3ccc(S(=O)(=O)O)c4cc(S(=O)(=O)O)cc(S(=O)(=O)O)c34)cc2)cc1` [NF279], the “ATP induced phosphorylation of S6” value in [1] is recorded as “did not decrease ATP dependent S6 phosphorylation”.

Turning to `CNC(=O)c1ccc(C)c(-n2c(C)cc(OCc3ccc(F)cc3F)c(Br)c2=O)c1` [PH797804], the tumor organoid survival entry in series [6] (MAPK inhibitor (JNK or p38) in the presence or absence of DT) is given as “did not affect tumor organoid survival”.

Turning to `Cc1nc(N=Nc2ccc(S(=O)(=O)O)cc2S(=O)(=O)O)c(COP(=O)(O)O)c(C=O)c1O` [PPADS], the “Lgr5+ cell death induced S6 phosphorylation” value in series [1] (non-selective P2 receptor antagonists) was “blocked Lgr5+ cell death induced S6 phosphorylation”.

For `Cc1ccc(S(=O)(=O)N2c3ccccc3Oc3ccccc32)cc1` [PSB-12062], in the series with PC3 and C4-2B4 cells, the “growth, mobility and apoptosis of PCa cells” value is “impaired the growth and mobility of PCa cells but not apoptosis”.

As for `C=CCSSC[C@H](N)C(=O)O` [SAMC, S-allylmercapto-cysteine], the tumor suppression entry in the series with HCT-116 cells is on record as “enhanced tumor-suppressing ability”.

For `CN=[N+](C)[O-]` [azoxymethane], the “S6 phosphorylation in IEC” value in [7] is recorded as “enhanced S6 phosphorylation in IEC”.

On to `Nc1nc2c(ncn2[C@@H]2O[C@@H]3COP(=O)(O)O[C@H]4[C@@H](O)[C@H](n5cnc6c(N)ncnc65)O[C@@H]4COP(=O)(O)O[C@@H]2[C@@H]3O)c(=O)[nH]1` [cGAMP], for which, in [1] (exogenous cGAMP), the “phosphorylation of S6-ribosomal protein” value is given as “induced phosphorylation of S6-ribosomal protein in a dose dependent manner”.

Turning to `NC(=O)c1ncn([C@@H]2O[C@H](CO)[C@@H](O)[C@H]2O)c1O` [mizoribine], the organoid collapse result in [6] (mizoribine in combination with DT-mediated depletion of Lgr5+ cells, ex vivo) is listed as “profound organoid collapse”. The S6-ribosomal protein phosphorylation entry in series [4] (mizoribine in combination with DT-mediated depletion of Lgr5+ cells) was “without affecting S6-ribosomal protein phosphorylation”. Also, in series [4] (mizoribine in combination with DT-mediated depletion of Lgr5+ cells, s.c. tumors), the “viable proliferative tumor cells” value is “markedly reduced viable proliferative”.

As for `COC(=O)C[C@H](NC(=O)[C@H](C)NC(=O)[C@@H](NC(=O)OCc1ccccc1)C(C)C)C(=O)CF` [zVAD, carbobenzoxy-valyl-alanyl-aspartyl-[O-methyl]-fluoromethyl ketone] (Cbz-Val-Ala-Asp(OMe)-CH2F), the “organoid survival under combined 5-FU/rapamycin treatment” value in series [8] (apoptosis inhibitor zVAD (50 μM) added) is given as “rescued the negative effect of combined 5-FU/rapamycin treatment on organoid survival”.

In the case of Anakinra: IL-1 signaling inhibitor, the “rescue of organoid reseeding capacity under 5-FU/rapamycin” value in series [8] is listed as “only inhibition of ROS signaling by NAC was able to rescue”.

As to Apyrase, the “S6 phosphorylation induced by DT treatment or necrotic supernatant” value in [1] (Apyrase hydrolyzing released ATP) is given as “reduce the levels of S6 phosphorylation”.

Enbrel: in [8], the “rescue of organoid reseeding capacity under 5-FU/rapamycin” value is on record as “only inhibition of ROS signaling by NAC was able to rescue”.

As for “panitumumab: added to everolimus + mFOLFOX6 in phase I trial”, the toxicity entry in series [9] is given as “unacceptable level of toxicity”.
